Paper PMC6844273, “Platinum(IV) dihydroxido diazido N-(heterocyclic)imine complexes are potently photocytotoxic when irradiated with visible light” (Chemical Science, 2019)
Entries after “also recorded” stand apart in the source; their conditions may differ. Where two headings read alike, the source gives them in different places. Marks after values point to notes of the source that are not given here.

Experiments:
[1] = system: human ovarian (A2780) cancer cell line; test: Phototoxicity / dark cytotoxicity, neutral red uptake assay, A2780; conditions: for PI (phototoxic index): ratio of cytotoxicity following irradiation (420 nm) vs. in the dark
Description: (§1) The novel trans-di-(N-heterocyclic)imine dihydroxido diazido Pt^IV complexes Pt^IV complexes were evaluated against human ovarian (A2780), cisplatin-resistant ovarian (A2780cis) and oesophageal (OE19) cancer cell lines, and the previously reported compounds (FM165 and 3) were also evaluated for comparison. […]
(§2) controller and 3 UVA lamps (Hitachi, λmax = 361 nm) or 6 Luzchem LZC-420 lamps (λmax = 420 nm) with no other sources of light filtration, or LED light sources (BASETech model no. SP-GU10 230V~50 Hz […]
(§3) Maintenance. Human ovarian carcinoma (A2780), cisplatin-resistant ovarian carcinoma (A2780CIS) and oesophageal adenocarcinoma (OE19) cells were maintained in RPMI medium containing 10% Foetal Calf Serum (FCS). Cell lines were obtained from the European Collection of Animal Cell Cultures (ECACC). Cells were maintained in antibiotic-free medium in a humidified atmosphere of 95% air: 5% CO2 and subcultured every 7-10 days. Mycoplasma checks were done using the Hoechst staining method. Cells were seeded into dishes the night before experiments at a density of 6 - 7×10^4 cells.cm-2.
(§4) Experiments were carried out in an adapted laboratory with ambient light levels kept below 1 lux […]
(§5) Irradiation. Cells were irradiated by a bank of TL03 light sources (λmax 420 nm), filtered to attenuate wavelengths below 400 nm. Irradiances, dosimetry and calibrations were traceable to the National Physical Laboratory.12 Monochromatic light irradiation of the sample was performed using equipment consisting of a 1600W xenon arc light source and a grating monochromator. The apparatus was set to irradiate monochromatic light at 365, 400, 430, 500 and 530 nm. Filters were used to eliminate second order diffraction of shorter wavelengths from the specified longer wavelength monochromatic light.13 Cells were irradiated in stirred suspension. Sham irradiated cells were treated identically to the test cells but were covered during irradiation.
(§6) Treatment. Test compounds were prepared in Earle’s Balanced Salt Solution (EBSS) and filtered immediately before use. Photofrin was used as the positive control for visible light irradiation. The positive and negative controls were included on each plate in parallel with the complexes. Cell viability […]
(§7) Cells were treated for 1 h at 37 °C/5% CO2 with EBSS containing the test compound, and then irradiated with 5 J.cm-2 visible radiation.
(§8) Phototoxic Index and Wavelength-Dependence. The phototoxic Index (PI) was determined 24 h after irradiation using the neutral red uptake assay;14 following cell uptake the neutral red dye accumulates in lysosomes, the low pH in the lysosomal matrix of live cells causes the dye to becomes charged, allowing it to be retained in this organelle.15 The dye was then extracted from the cells upon solubilisation and quantified. Protocol: a stock solution of neutral red was prepared in water (4 mg. mL-1) and diluted 80-fold in the cell culture medium (RPMI). Prior to addition to the cells, the solution was heated to 37 °C and filtered (no. 1 Whatman paper). The growth medium was removed from the cells, the neutral red dye (100 μL) was added and the cells are incubated for 3 hours in the dark. Upon removal of the dye, the cells were rinsed with PBS (100 μL) and then the plates were shaken for 15 min with […] for solubilisation. The dye concentration was quantified by measuring the absorbance at […]. An IC50 value was determined and is defined as the concentration required to inhibit dye uptake by 50%. This was done using non-linear regression (Graphpad Prism). Goodness of fit was determined from the R2 values of the curves and 95% confidence intervals. All cell experiments were performed in triplicate and repeated independently a minimum of two times.

[2] = system: cisplatin-resistant ovarian (A2780cis) cancer cell line; test: Phototoxicity / dark cytotoxicity, neutral red uptake assay, A2780cis; conditions: for PI (phototoxic index): ratio of cytotoxicity following irradiation (420 nm) vs. in the dark; for IC50: read-out: IC50 (phototoxicity), blue light 420 nm, 5 J cm^–2, TL03, filtered <400 nm
Description: as §1, §3, §4
(§9) Irradiation. Cells were irradiated by a bank of TL03 light sources (λmax 420 nm), filtered to attenuate wavelengths below 400 nm. Irradiances, dosimetry and calibrations were traceable to the National […]
(§10) Cells were irradiated in stirred suspension. Sham irradiated cells were treated identically to the test cells but were covered during irradiation.
as §6, §7, §8

[3] = system: A2780, A2780cis and OE19 cancer cell lines; conditions: for Dark toxicity: absence of irradiation, cell lines investigated; for IC50: read-out: IC50 in the absence of irradiation, dark, non-toxic defined as IC50 > 200 μM
Description: as §1, §3, §4, §9, §10, §6, §7, §8

[4] = type: physicochemical; conditions: water, 20 °C
[5] = Photodecomposition in H2O (loss of N3→Pt LMCT band) by UV-vis spectroscopy; type: physicochemical; conditions: 60 μM in H2O, blue light 463 nm, 57 mW cm^–2, UV-vis
Description: Solutions of the Pt^IV diazido complexes (60 μM, H2O) were irradiated with blue light (463 nm, 57 mW cm^–2). […] The data were fitted to y = y0 + Ae^Rox, with r^2 > 0.98 (Fig. 7).
Figure S2: Changes in UV-Vis spectra of the PtIV diazido complexes (60 μM in H2O) upon irradiation
Table S11. Decomposition half-lives of complexes (60 μM) when irradiated with blue (463 nm) light,
as measured by UV-Vis spectroscopy.
(1 picture or pasted object on this page, not shown here)

[6] = system: oesophageal (OE19) cancer cell line; test: Phototoxicity / dark cytotoxicity, neutral red uptake assay, OE19; conditions: for PI (phototoxic index) / IC50: OE19; for PI (phototoxic index): ratio of cytotoxicity following irradiation (420 nm) vs. in the dark; for IC50: read-out: IC50 (phototoxicity), blue light 420 nm, 5 J cm^–2, TL03, filtered <400 nm
Description: as §1, §2, §3, §4, §5, §6, §7, §8

[7] = system: A2780, A2780cis and OE19 cancer cell lines; design: method as in PMID 23733242; conditions: dark; read-out: IC50 in the absence of irradiation; cited from earlier work
[8] = system: human ovarian (A2780) cancer cell line; conditions: cited from earlier work; for IC50: read-out: IC50 (phototoxicity); for Dark toxicity: A2780, absence of irradiation
[9] = system: oesophageal (OE19) cancer cell line; design: method as in PMID 23733242; conditions: OE19, 420 nm irradiation; read-out: IC50 (phototoxicity); cited from earlier work
[10] = system: cisplatin-resistant ovarian (A2780cis) cancer cell line; conditions: read-out: IC50 (phototoxicity), cited from earlier work
[11] = read-out: IC50 (phototoxicity), A2780, blue light 420 nm, 5 J cm^–2, TL03, filtered <400 nm, 1 h treatment, read 24 h after irradiation

Substance | PI (phototoxic index) ([1]; A2780) | IC50 [1, 11] | PI (phototoxic index) [2] | IC50 [2] | IC50 [3] | Maximum aqueous solubility [4] | Decomposition half-life t1/2 [5] | PI (phototoxic index) [6] | IC50 [6] | further results
trans,trans,trans-[Pt(N3)2(OH)2(1-methylimidazole)2] [Complex 32] | >3.7 | 56.3 µM | >1.3 | 164 µM | > 200 µM | 82 mM |  |  |  | Dark toxicity [3]: non-toxic in the absence of irradiation
trans,trans,trans-[Pt(N3)2(OH)2(2-picoline)(pyridine)] [Complex 18] | 7.3 ^d | 14.5 µM | 5.3 ^d | 15.5 µM |  |  |  |  |  | Phototoxicity, fold less phototoxic than 26 ([1]; A2780, 420 nm): ~7 fold
trans,trans,trans-[Pt(N3)2(OH)2(3-picoline)2] [Complex 23] | >27.8 | 7.2 µM | >19.3 | 10.4 µM | > 200 µM | 3 mM | 26 min |  |  | 
trans,trans,trans-[Pt(N3)2(OH)2(3-picoline)(pyridine)] [Complex 19] | >51.5 | 4 µM | >71.0 | 3.3 µM | > 200 µM |  |  | >38 | 5.5 µM | 
trans,trans,trans-[Pt(N3)2(OH)2(4-picoline)2] [Complex 26] |  | 2.1 µM |  | 4.1 µM | > 200 µM |  | 25 min |  | 8.2 µM | 
trans,trans,trans-[Pt(N3)2(OH)2(4-picoline)(pyridine)] [Complex 20] | >38 | 5.4 µM | >45 | 4.6 µM | > 200 µM |  |  | >17 | 12.3 µM | Phototoxicity with green light ([1]; A2780, green light 515 nm): no phototoxicity; Phototoxicity with green light ([6]; OE19, green light 515 nm): no phototoxicity
trans,trans,trans-[Pt(N3)2(OH)2(NH2CH3)(thiazole)] |  |  |  |  |  |  |  |  |  | IC50 [7]: > 233 µM; IC50 ([8]; A2780, 420 nm irradiation): 28.2 µM; IC50 [9]: 19.3 µM; IC50 ([10]; 420 nm irradiation): 6.4 µM
trans,trans,trans-[Pt(N3)2(OH)2(NH3)(py)] [FM165, reference compound] | >9.6 | 25.4 µM |  |  |  |  |  |  |  | Dark toxicity [8]: non-toxic in the absence of irradiation; IC50 ([8]; A2780, visible light 420 nm): 25.4 µM
trans,trans,trans-[Pt(N3)2(OH)2(thiazole)2] [Complex 29] |  | 2.4 µM | >71.0 | 2.9 µM |  | 1 mM | 17 min | >27 | 7.6 µM | Dark toxicity ([1]; A2780, absence of irradiation): some dark toxicity; IC50 ([1]; read-out: IC50 in the absence of irradiation, A2780, dark): 115 µM; Dark toxicity ([6]; OE19, absence of irradiation): no toxicity; also recorded: without any dark toxicity; Dark toxicity ([2]; absence of irradiation): no toxicity; also recorded: without any dark toxicity; Dark toxicity [3]: toxic towards cells in the absence of irradiation; Phototoxicity, fold greater than thiazole complex (tz, methylamine) ([3]; all three cell lines, 420 nm): at least 2 fold
trans,trans,trans-[Pt(OH)2(N3)2(py)2] [Complex 3, reference compound] | >45 | 6.7 µM |  |  |  | 34 mM | 22 min | >45 | 8.4 µM | IC50 ([8]; A2780, UVA irradiation): 1.4 µM; Dark toxicity [8]: non-toxic in the absence of irradiation; IC50 ([8]; A2780, visible light 420 nm): 6.7 µM; IC50 ([10]; UVA irradiation): 14.5 µM
